Assay results: US12649732B2, “Polymorphs of (R)-N-(5-(5-isopropyl-1,2,4-oxadiazol-3-yl)-2,3-dihydro-1H-inden-1-yl)-2-methyl-2H-tetrazole-5-carboxamide” (Cytokinetics, Inc., priority 2019, dated 2026)

How the values were obtained:
[1] = system: cardiac fractional shortening; assay: Echocardiography of rat cardiac contractility, oral dosing; assay type: in vivo, Sprague Dawley rats
Procedure: Assessment of in vivo cardiac function by echocardiography was performed in male Sprague Dawley rats under isoflurane (1-3%) anesthesia. 2-D M-mode images of the left ventricle were acquired in the parasternal long-axis view before, during, and after administration of compounds by continuous IV infusion or oral gavage. In vivo fractional shortening was determined by M-mode image analysis with the following calculation: ((End diastolic diameter−end systolic diameter)/end diastolic diameter×100). For continuous IV infusion experiments, three pre-dose baseline M-mode images were taken at 1 minute intervals prior to infusion of compound. Compounds were formulated in 50% Propylene Glycol (PG): 16% Captisol: 10% dimethylacetamide (DMA) and delivered via a jugular vein catheter at the rate of 1 mL/kg/h. During infusion, M-mode images were taken at 5 minute intervals. The infusion stopped when fractional shortening reached up to a 60% reduction from baseline. Blood samples were taken to determine the plasma concentration of the compounds. Data was reported as an estimated IC50 value, which is the concentration at which fractional shortening is 50% of the pre-dose baseline contractility. […] For oral dosing studies, three pre-dose baseline M-Mode images were taken at 1 minute intervals prior to compound administration. (R)—N-(5-(5-isopropyl-1,2,4-oxadiazol-3-yl)-2,3-dihydro-1H-inden-1-yl)-2-methyl-2H-tetrazole-5-carboxamide was formulated in a 0.5% hydroxypropyl methylcellulose 2910 (HPMC 2910): 0.1% Tween 80 suspension and delivered as a single dose (5 mL/kg) by oral gavage. Rats were lightly anesthetized for M-Mode echocardiography measurements at select time points over a 24 hour period. Different dose levels were evaluated. The compound effect on cardiac fractional shortening at the highest dose evaluated is presented below as a percent reduction of baseline fractional shortening (=100%). Concurrent with echocardiography measurements, blood samples were taken to determine the corresponding compound plasma concentration.

[2] = system: adult rat ventricular myocytes; assay: Myocyte contractility assay (fractional shortening, edge detection); assay type: cell-based, Sprague-Dawley rats; conditions: 5 μM, 5 min perfusion, 5 cells tested
Procedure: Adult male Sprague-Dawley rats were anesthetized and the hearts were quickly excised, rinsed and the ascending aorta was cannulated. Continuous retrograde perfusion was initiated on the hearts at a perfusion pressure of 60 cm H2O. Hearts were first perfused with a nominally Ca^2+-free modified Krebs solution of the following composition: 113 mM NaCl, 4.7 mM KCl, 0.6 mM KH2PO4, 0.6 mM Na2HPO4, 1.2 mM MgSO4, 12 mM NaHCO3, 10 mM KHCO3, 30 mM taurine, 5.5 mM glucose and 10 mM Hepes (all Sigma). This medium is not recirculated and is continually aerated with a 95% O2/5% CO2 mixture. […]
Aliquots of myocytes in Tyrode's buffer were placed in perfusion chambers (series 20 RC-27NE; Warner Instruments) complete with heating platforms. […] Contractility of the myocytes and contraction and relaxation velocities were then recorded using edge detection.
Five or more individual myocytes were tested per compound from two or more different myocyte preparations. […] These average transients were analyzed using the IonWizard software (IonOptix) to determine changes in diastolic length and fractional shortening. Fractional shortening was calculated as: ((resting length−length at peak contraction) divided by the resting length). The percent change in fractional shortening from baseline was calculated as: ((post-dose fractional shortening/basal fractional shortening)*100). […]

[3] = target: T1, bovine cardiac myofibrils (Bos taurus, UniProt Q9BE39); assay: Skinned bovine cardiac myofibril ATPase assay (PK/LDH-coupled); assay type: biochemical; conditions: steady-state ATPase, Ca2+ giving 75% activation of myofibril ATPase
T1 construct: full-length cardiac myosin in the context of the native sarcomere; from tissue; host or cells: bovine cardiac left ventricular tissue (Triton X-100 skinned myofibrils)
Procedure: To evaluate the effect of (R)—N-(5-(5-isopropyl-1,2,4-oxadiazol-3-yl)-2,3-dihydro-1H-inden-1-yl)-2-methyl-2H-tetrazole-5-carboxamide on the ATPase activity of full-length cardiac myosin in the context of the native sarcomere, skinned myofibril assays were performed. Bovine cardiac myofibrils were obtained by homogenizing bovine cardiac left ventricular tissue in the presence of a detergent such as triton X-100. Such treatment removes membranes and a majority of the soluble cytoplasmic proteins but leaves intact the cardiac sarcomeric acto-myosin apparatus. Myofibril preparations retain the ability to hydrolyze ATP in a Ca^2+ regulated manner. […] Small molecule agents were assessed for their ability to inhibit the steady-state ATPase activity of bovine cardiac myofibrils using pyruvate kinase and lactate dehydrogenase (PK/LDH)-coupled enzyme system. This assay regenerates myosin-produced ADP into ATP by oxidizing NADH, producing an absorbance change at 340 nm. Prior to testing small molecule agents, the bovine cardiac myofibrils were assessed for their calcium responsiveness and the calcium concentration that achieves either a 50% (pCa50) or 75% (pCa75) activation of the myofibril system was chosen as the final condition for assessing the inhibitory activity of the small molecule agents.

[4] = system: cardiac fractional shortening; assay: Echocardiography of rat cardiac contractility, continuous IV infusion; assay type: in vivo, Sprague Dawley rats; conditions: Mean±S.D., read-out: estimated IC50 (plasma concentration at which fractional shortening is 50% of pre-dose baseline)
Procedure: Assessment of in vivo cardiac function by echocardiography was performed in male Sprague Dawley rats under isoflurane (1-3%) anesthesia. 2-D M-mode images of the left ventricle were acquired in the parasternal long-axis view before, during, and after administration of compounds by continuous IV infusion or oral gavage. In vivo fractional shortening was determined by M-mode image analysis with the following calculation: ((End diastolic diameter−end systolic diameter)/end diastolic diameter×100). For continuous IV infusion experiments, three pre-dose baseline M-mode images were taken at 1 minute intervals prior to infusion of compound. Compounds were formulated in 50% Propylene Glycol (PG): 16% Captisol: 10% dimethylacetamide (DMA) and delivered via a jugular vein catheter at the rate of 1 mL/kg/h. During infusion, M-mode images were taken at 5 minute intervals. The infusion stopped when fractional shortening reached up to a 60% reduction from baseline. Blood samples were taken to determine the plasma concentration of the compounds. Data was reported as an estimated IC50 value, which is the concentration at which fractional shortening is 50% of the pre-dose baseline contractility.

T1 sequence (Q9BE39 whole entry): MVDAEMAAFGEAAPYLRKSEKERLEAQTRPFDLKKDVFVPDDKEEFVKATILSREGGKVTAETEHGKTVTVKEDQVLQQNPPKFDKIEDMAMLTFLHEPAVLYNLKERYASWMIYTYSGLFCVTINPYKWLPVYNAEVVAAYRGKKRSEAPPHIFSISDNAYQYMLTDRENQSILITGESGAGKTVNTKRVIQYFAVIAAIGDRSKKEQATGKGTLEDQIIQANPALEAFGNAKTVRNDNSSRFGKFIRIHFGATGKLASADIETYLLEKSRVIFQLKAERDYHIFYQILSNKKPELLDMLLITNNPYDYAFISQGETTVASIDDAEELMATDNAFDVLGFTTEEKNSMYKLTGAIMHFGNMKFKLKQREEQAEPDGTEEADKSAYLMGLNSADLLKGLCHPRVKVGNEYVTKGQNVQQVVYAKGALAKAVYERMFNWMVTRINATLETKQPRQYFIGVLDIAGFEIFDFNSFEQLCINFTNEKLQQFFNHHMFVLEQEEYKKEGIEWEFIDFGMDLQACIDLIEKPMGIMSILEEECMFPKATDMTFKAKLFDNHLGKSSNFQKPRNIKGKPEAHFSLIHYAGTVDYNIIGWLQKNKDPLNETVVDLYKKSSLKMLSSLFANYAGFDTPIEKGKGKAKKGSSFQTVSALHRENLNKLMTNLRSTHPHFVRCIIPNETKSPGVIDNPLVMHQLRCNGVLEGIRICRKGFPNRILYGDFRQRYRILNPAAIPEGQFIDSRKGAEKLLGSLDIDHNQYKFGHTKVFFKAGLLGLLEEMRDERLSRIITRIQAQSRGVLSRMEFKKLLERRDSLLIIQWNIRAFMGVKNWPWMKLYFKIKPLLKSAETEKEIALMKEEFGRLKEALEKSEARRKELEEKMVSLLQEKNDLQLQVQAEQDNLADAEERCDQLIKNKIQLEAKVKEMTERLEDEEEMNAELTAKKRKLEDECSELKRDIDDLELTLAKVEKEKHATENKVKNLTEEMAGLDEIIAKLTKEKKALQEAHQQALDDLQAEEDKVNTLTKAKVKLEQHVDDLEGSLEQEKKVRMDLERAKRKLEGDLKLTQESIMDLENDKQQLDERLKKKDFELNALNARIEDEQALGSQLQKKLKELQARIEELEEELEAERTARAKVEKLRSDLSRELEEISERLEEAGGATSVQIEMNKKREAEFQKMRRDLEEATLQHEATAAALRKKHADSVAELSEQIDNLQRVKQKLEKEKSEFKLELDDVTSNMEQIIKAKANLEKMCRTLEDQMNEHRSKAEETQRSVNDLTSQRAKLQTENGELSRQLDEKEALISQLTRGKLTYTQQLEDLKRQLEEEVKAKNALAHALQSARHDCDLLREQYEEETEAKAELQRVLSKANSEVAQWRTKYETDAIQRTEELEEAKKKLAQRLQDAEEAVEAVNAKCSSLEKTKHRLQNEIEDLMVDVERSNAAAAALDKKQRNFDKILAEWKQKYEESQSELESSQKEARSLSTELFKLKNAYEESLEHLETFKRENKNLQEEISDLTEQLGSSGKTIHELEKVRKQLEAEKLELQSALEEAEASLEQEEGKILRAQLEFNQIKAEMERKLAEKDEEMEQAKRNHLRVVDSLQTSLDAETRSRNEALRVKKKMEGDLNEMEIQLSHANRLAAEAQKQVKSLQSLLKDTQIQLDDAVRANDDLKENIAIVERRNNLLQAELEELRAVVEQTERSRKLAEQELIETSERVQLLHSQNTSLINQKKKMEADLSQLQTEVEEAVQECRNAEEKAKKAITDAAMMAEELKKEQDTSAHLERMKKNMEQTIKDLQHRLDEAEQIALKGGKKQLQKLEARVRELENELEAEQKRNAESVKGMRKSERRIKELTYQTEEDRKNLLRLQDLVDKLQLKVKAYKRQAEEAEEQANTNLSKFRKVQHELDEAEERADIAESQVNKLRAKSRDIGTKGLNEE
T1 sequence (P85100 whole entry partner): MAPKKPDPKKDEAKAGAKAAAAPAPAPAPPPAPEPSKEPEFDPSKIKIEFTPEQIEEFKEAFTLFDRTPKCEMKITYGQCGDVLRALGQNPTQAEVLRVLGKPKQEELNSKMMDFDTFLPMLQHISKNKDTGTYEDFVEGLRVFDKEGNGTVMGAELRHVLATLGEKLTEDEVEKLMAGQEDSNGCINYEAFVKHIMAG
T1 sequence (Q3SZE5 whole entry partner): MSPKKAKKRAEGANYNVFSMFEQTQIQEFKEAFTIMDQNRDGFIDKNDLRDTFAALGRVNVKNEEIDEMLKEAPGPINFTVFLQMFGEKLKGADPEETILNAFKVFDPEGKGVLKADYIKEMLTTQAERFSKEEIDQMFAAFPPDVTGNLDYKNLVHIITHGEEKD

CC(C)c1nc(-c2ccc3c(c2)CC[C@H]3NC(=O)c2nnn(C)n2)no1 [(R)—N-(5-(5-isopropyl-1,2,4-oxadiazol-3-yl)-2,3-dihydro-1H-inden-1-yl)-2-methyl-2H-tetrazole-5-carboxamide]
FS (% reduction from baseline) at 1-2 h post dose (Mean ± S.D.) ([1]; 6 mg/kg single oral gavage, 1-2 h post dose): 40 ± 9%
FS (% reduction from baseline) at 4 h post dose (Mean ± S.D.) ([1]; 6 mg/kg single oral gavage, 4 h post dose): 18 ± 11%
IC50 ([1]; Rattus norvegicus, oral dosing, read-out: estimated IC50 (plasma concentration, fractional shortening)): 2900 nM
estimated IC10 (plasma concentration, fractional shortening) ([1]; oral dosing): 700 nM
% FS (% reduction from baseline) ± SEM [2]: 67.8 ± −5.4%
IC15 (CDMF75) [3]: 500 nM
IC50 [4]: 2700 ± 120 nM
